Conditions: 3 wt. % in base oil CnF2n+1(CF2CF2CF2O)mCnF2n+1 (viscosity at 40° C.: 210 mm^2/s), stirred under heating, stored at 25° C. for 24 hours
Procedure: The phosphonic acid ester (3 wt. %) obtained in Example 1 or 7 was added to a base oil of the formula: CnF2n+1(CF2CF2CF2O)mCnF2n+1 (viscosity at 40° C.: 210 mm^2/s), and the mixture was sufficiently stirred under heating. After the mixture was stored at 25° C. for 24 hours, the solubility of the phosphonic acid ester in the base oil was visually observed.

CCOP(=O)(CCC(F)(F)C(F)(F)C(F)(F)C(F)(F)C(F)(F)CC(F)(F)C(F)(F)C(F)(F)C(F)(F)F)OCC [Example 1, CF3(CF2)3(CH2CF2)(CF2CF2)2(CH2CH2)P(O)(OCH2CH3)2]
solubility of the phosphonic acid ester in the base oil (visually observed): dissolved into an almost transparent solution
